Experimental data: US9511050B2, “Methods and compositions for treating cancer” (GEORGETOWN UNIVERSITY, priority 2013, dated 2016)
Where two headings read alike, the source gives them in different places.

Assays:
[1] = test system: TC32 (human ESFT cell line); assay: IC50 activity in TC32 cells; format: cell-based
Experimental: (§1) Compounds provided in Table 2 were prepared using methods similar to those described herein. The structures and IC50 activities of particular compounds in PANC1 (a human pancreatic carcinoma), TC32 (human ESFT cell line), and TC71 (human ESFT cell line) cells are summarized in Table 2.

EWS-FLI1/RHA interaction = target: T1, EWS-FLI1/RHA interaction (Homo sapiens, UniProt Q01543+Q01844); assay: Immunoblot/co-precipitation of RHA and EWS-FLI1 from treated TC32 cells; format: cell-based; conditions: TC32 cell lysates
T1 construct: endogenous in cells; host or cells: TC32
T1 sequence (Q01844+Q01543 with tags, fused parts or gaps): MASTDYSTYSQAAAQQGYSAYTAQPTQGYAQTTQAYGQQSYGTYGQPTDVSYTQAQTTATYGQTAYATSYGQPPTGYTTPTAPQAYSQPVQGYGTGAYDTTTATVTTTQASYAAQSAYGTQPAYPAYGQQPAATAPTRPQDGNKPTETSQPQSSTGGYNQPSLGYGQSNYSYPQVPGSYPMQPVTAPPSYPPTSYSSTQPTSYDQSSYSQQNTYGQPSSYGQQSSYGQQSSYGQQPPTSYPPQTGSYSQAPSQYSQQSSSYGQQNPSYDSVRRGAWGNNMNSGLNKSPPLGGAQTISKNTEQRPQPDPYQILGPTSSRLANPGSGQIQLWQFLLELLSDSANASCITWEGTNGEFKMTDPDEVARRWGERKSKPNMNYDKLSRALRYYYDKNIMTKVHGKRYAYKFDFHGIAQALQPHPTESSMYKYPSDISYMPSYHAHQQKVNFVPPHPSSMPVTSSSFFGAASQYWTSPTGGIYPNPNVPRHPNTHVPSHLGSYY

BSA = BSA (Bos taurus, UniProt P02769); assay: Surface plasmon resonance binding to non-specific protein BSA; conditions: SPR, read-out: affinity for BSA
Experimental: Steady state kinetics were measured on a Biacore T100 instrument, as previously described (Erkizan H V, Kong Y, Merchant M, Schlottmann S, Barber-Rotenberg J S, Yuan L, et al. A small molecule blocking oncogenic protein EWS-FLI1 interaction with RNA helicase A inhibits growth of Ewing's sarcoma. Nat Med. 2009 July; 15(7):750-6. PubMed PMID: 19584866. Eng; Barber-Rotenberg J S, Selvanath), SPR sensograms are not shown.

[2] = test system: PANC1 (a human pancreatic carcinoma); assay: IC50 activity in PANC1 cells; format: cell-based
Experimental: as §1

[3] = test system: TC71 (human ESFT cell line); assay: IC50 activity in TC71 cells; format: cell-based
Experimental: as §1
(§2) Growth inhibition of ESFT cells was measured for various concentrations of particular compounds.

ES xenografts = assay: ES xenograft tumor regression in mice; format: in vivo; conditions: 400 mg/kg intraperitoneal, three days, 6 total doses, tumors 300 mm^3
Experimental: FIG. 13A: Mice with ES xenografts were treated with 400 mg/kg compound or controls as indicated. Starting well-established tumors (300 mm^3), mice were treated with intraperitoneal compound for three days, 6 total doses. FIG. 13B: H and E stained tumors from same experiment.
YK-4-279 upon xenograft GBM tumors is evaluated by treating animals seven days after tumor injection and those with symptomatic tumors. Early tumors are screened with Xenogen, and size correlated with MRI, and treatment started when animals 5 mm^3 lesions. YK-4-279 passes the blood-brain barrier. […] The study will measure brain tumor volumes, animal symptoms, and overall survival. At necropsy, tumors and normal adjacent brain will be evaluated by immunohistochemistry for GBM markers, apoptosis, and FLI1 regulated target genes. […] FIG. 13A: Mice with ES xenografts were treated with 400 mg/kg compound or controls as indicated. Starting well-established tumors (300 mm^3), mice were treated with intraperitoneal compound for three days, 6 total doses. FIG. 13B: H and E stained tumors from same experiment.

GBM cell lines = assay: Growth of GBM cell lines; format: cell-based; conditions: range over GBM cell lines
Description: Seven cell lines were selected with a spectrum of genetic abnormalities that occur in GBM. […] A panel of GBM cell lines were acquired that represent the heterogeneity of the disease.

[4] = Rat pharmacokinetics, IV injection, observation; format: in vivo; conditions: rats, rapid injection; did not occur with slower infusion
Description: One of the significant challenges in getting novel targeted therapy into GBM is overcoming the blood-brain barrier (BBB).

ESFT cells = assay: Growth inhibition of ESFT cells; format: cell-based; conditions: ESFT cells growing in monolayer
Experimental: as §2

EWS-FLI1 [5] = target: T2, EWS-FLI1 (Homo sapiens, UniProt Q01543); conditions: read-out: affinity (KD) for EWS-FLI1; cited from earlier work
T2 sequence (Q01543 220-452 limits assumed): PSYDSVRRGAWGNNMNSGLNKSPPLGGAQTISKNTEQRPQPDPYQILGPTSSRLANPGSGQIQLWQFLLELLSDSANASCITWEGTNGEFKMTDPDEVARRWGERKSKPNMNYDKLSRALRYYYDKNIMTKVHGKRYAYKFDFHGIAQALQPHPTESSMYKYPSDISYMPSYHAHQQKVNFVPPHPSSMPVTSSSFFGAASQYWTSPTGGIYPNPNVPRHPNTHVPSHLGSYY

Ewing Sarcoma xenograft = Ewing Sarcoma xenograft models; cited from earlier work
EWS-FLI1 [6] = target: T3, EWS-FLI1 (Homo sapiens, UniProt Q01543+Q01844); conditions: enantiomer specificity; cited from earlier work
T3 sequence (Q01543 220-452 limits assumed): T2 sequence (Q01543 220-452 limits assumed)

BSA, sequence (P02769 25-607): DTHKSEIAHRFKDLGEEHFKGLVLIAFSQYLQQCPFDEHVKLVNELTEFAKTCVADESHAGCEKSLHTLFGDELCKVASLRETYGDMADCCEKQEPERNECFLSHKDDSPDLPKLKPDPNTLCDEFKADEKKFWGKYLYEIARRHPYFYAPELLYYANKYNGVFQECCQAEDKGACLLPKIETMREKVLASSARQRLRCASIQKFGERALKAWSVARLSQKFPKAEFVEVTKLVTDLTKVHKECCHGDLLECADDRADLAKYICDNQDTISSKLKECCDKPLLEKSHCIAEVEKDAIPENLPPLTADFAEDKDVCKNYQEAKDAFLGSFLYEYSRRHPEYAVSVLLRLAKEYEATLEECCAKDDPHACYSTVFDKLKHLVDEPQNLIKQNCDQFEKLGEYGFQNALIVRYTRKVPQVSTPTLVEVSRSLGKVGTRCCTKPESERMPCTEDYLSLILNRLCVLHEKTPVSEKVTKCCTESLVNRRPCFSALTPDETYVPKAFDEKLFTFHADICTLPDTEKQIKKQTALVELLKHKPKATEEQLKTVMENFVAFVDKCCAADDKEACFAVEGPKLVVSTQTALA

| Compound | IC50 ([1]; Homo sapiens, TC-32, TC32 cells) [nM] | IC50 ([1]; TC32 cells) [nM] | interaction of RHA with EWS-FLI1 (EWS-FLI1/RHA interaction; co-precipitation) | level of EWS-FLI1 or RHA (EWS-FLI1/RHA interaction; immunoblot) | Kd (BSA) [nM] | IC50 ([2]; Homo sapiens, PANC-1, PANC1 cells) [nM] | IC50 ([2]; PANC1 cells, read-out: IC50 PANC 1) [nM] | IC50 ([3]; Homo sapiens, TC-71, TC71 cells) [nM] | IC50 ([3]; TC71 cells) [nM] | tumor response (ES xenografts) | IC50 (GBM cell lines) [nM] | observation after IV injection [4] | IC50 (ESFT cells) [nM] | Kd (EWS-FLI1 [5]) [nM] | tumor growth (Ewing Sarcoma xenograft) | inhibition of functional activities of EWS-FLI1 (EWS-FLI1 [6]) |
| --- | --- | --- | --- | --- | --- | --- | --- | --- | --- | --- | --- | --- | --- | --- | --- | --- |
| COc1ccc(C(=O)CC2(O)C(=O)Nc3c(Cl)ccc(Cl)c32)cc1 (racemic) [YK-4-279] | 940 | 766 | did disrupt their interactions | did not directly affect the level of EWS-FLI1 or RHA | 122000 | 20000 | 34000 | 918 | 1430 | significant tumor regression | 500 to 9900 | rats became somnolent after rapid injection | 900 | 9500 | reduced tumor growth |  |
| COc1ccc(C(=O)C[C@@]2(O)C(=O)Nc3c(Cl)ccc(Cl)c32)cc1 [(S)-YK-4-279] |  |  |  |  |  |  |  |  |  | significant tumor regression |  |  |  |  |  | able to inhibit the functional activities of EWS-FLI1 |
